# Reference: paper PMC5120204, “Identification of an orally active small-molecule PTHR1 agonist for the treatment of hypoparathyroidism” (Nature Communications, 2016)
# What was measured:
# endogenous rat PTHR1 = biological target: T1, endogenous rat PTHR1 (Rattus norvegicus, UniProt P25961); assay: cAMP production in UMR-106 cells; type: cell-based
# T1 construct: UMR-106 cells, which natively express rat PTHR1; endogenous in cells; host or cells: UMR-106 (ATCC)
# T1 sequence (P25961 27-591): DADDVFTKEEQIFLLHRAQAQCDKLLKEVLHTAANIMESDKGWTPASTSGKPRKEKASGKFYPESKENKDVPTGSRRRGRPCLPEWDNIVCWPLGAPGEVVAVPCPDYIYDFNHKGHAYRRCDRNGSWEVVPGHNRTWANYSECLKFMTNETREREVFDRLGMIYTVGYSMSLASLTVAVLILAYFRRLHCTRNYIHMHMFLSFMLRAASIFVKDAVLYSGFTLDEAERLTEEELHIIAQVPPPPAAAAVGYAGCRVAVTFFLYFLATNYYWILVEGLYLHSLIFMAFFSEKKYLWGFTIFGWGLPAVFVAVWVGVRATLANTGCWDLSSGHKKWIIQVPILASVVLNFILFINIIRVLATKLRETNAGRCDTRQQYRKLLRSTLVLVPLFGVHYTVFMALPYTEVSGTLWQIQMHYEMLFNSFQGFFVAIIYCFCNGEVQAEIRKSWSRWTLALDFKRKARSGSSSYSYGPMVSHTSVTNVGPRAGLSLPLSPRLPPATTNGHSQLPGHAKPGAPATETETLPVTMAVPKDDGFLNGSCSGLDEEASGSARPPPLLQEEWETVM
# OVX rats = assay: Bone histomorphometry of lumbar vertebra in OVX rats; type: in vivo, rat
# Description: OVX was carried out in 32-week-old female Crl:CD (SD) rats (Charles River Laboratories). Twelve weeks after surgery, lumbar vertebral BMD (L3–L5) was measured in vivo by dual-energy X-ray absorptiometry (DXA) using a DCS-600EX-IIIR bone densitometer (Hitachi Aloka Medical), and the rats were divided into five groups, each with a similar mean value of BMD and body weight. Sample sizes were determined based on previous experiments with hPTHs and a published study with ibandronate and eldecalcitriol in our laboratories[42] (n=7–10). Then, OVX rats were treated once daily intravenously (vehicle or PCO371 at 3 or 10 mg kg^−1) or orally (vehicle or PCO371 at 30 mg kg^−1) or subcutaneously [vehicle or hPTH(1–34) at 0.9 nmol kg^−1] for 12 weeks. Ten to twelve OVX rats were assigned to each dose group. Nine rats were assigned to the sham-operated control group and were treated with vehicle for PCO371. Ten per cent DMSO (Wako Pure Chemical Industries)/10% Kolliphor EL (Sigma-Aldrich) in 10% hydroxypropyl-β-cyclodextrin (HPCD; Nihon Shokuhin Kako)/0.752% glycine (Wako Pure Chemical Industries) buffer was used as vehicle for PCO371, and phosphate-citrate buffer (pH 6.0) was used as vehicle for hPTH(1–34). To label bone-forming surfaces, tetracycline ([…], Nippon Zenyaku Kogyo) was subcutaneously injected on Day 78 and calcein (8 mg kg^−1, Dōjindo Laboratories) was subcutaneously injected on day 83. Under isoflurane anaesthesia, jugular vein blood was collected immediately before and at 1, 2, 6, 10 and 24 h after administration on day 82 to measure plasma concentration of PCO371 or on day 84 to measure serum Ca levels (o-CPC method, Wako Pure Chemical Industries). Urine was collected for 24 h from metabolic cages on days 84–85 to measure urinary collagen type 1 cross-linked C-telopeptide (CTX) by using the RatLaps ELISA System (Immunodiagnostic Systems). Under isoflurane anaesthesia, blood was collected on day 85 from the abdominal aorta to measure serum osteocalcin level by using the Rat Osteocalcin ELISA System (GE Healthcare). The lumbar spine and bilateral femurs were excised after 12 weeks of treatment. The first lumbar vertebra (L1), 3rd to 5th lumbar vertebrae (L3–L5), the right femur, and the right tibia were preserved in 70% ethanol to measure bone histomorphometry and BMD (DCS-600EX; Hitachi Aloka Medical). Measurement of bone histomorphometry was performed by the Ito Bone Histomorphometry Institute (Niigata, Japan). The second lumbar vertebra (L2) was wrapped in saline-soaked gauze and stored at −80 °C until measurement. Ultimate compressive strength (N) of the L2 vertebra was measured by using a mechanical testing machine (TK-252C; Muromachi Kikai).
# normal dogs [1] = assay: Single administration study in normal dogs; type: in vivo, dog; conditions: single oral administrations 3.0−30 mg kg^−1
# Description: Marshall Beagle dogs (20 months old, male, Marshall BioResources Japan Inc) were treated once orally (vehicle or PCO371 at 3, 10 or 30 mg kg^−1). Six dogs were assigned to each group. Vehicle for PCO371 was the same as in the rat studies. The sample size was determined based on previous experiments with hPTHs in our laboratories (n=6). Blood was collected from the cephalic vein immediately before and at 1, 2, 4, 6, 8, 10 and 24 h after administration to measure serum Ca levels (o-CPC method, Wako Pure Chemical Industries).
# normal dogs [2] = assay: Preclinical toxicology studies; type: in vivo, dog
# [3] = i.v. 3 mg kg-1 once daily 12 weeks
# [4] = i.v. 10 mg kg-1 once daily 12 weeks
# [5] = p.o. 30 mg kg-1 once daily 12 weeks
structure (smiles),measurement,setting,value
"Cc1cc(N2C(=O)NC(=O)C2(C)C)cc(C)c1CCS(=O)(=O)N1CCC2(CC1)N=C(c1ccc(OC(F)(F)F)cc1)NC2=O [PCO371, 1-{3,5-dimethyl-4-[2-({4-oxo-2-[4-(trifluoromethoxy)phenyl]-1,3,8-triazaspiro[4.5]dec-1-en-8-yl}sulfonyl)ethyl]phenyl}-5,5-dimethylimidazolidine-2,4-dione]",cAMP production,"endogenous rat PTHR1; 1 μmol l^−1, 20 min",did not induce cAMP production
same,cAMP production,endogenous rat PTHR1; 20 min,induced cAMP production
same,BFR/BS (Bone formation rate/Bone surface),OVX rats; [3],0.144 ± 0.013 mm3 per mm2 per year
same,BRs.R,OVX rats; [3],0.039 ± 0.005 mm2 per mm2 per year
same,BV/TV (Bone volume/Tissue volume),OVX rats; [3],23.2 ± 1.9%
same,ES/BS (Eroded surface/Bone surface),OVX rats; [3],27.6 ± 2.5%
same,MAR (Mineral apposition rate),OVX rats; [3],1.84 ± 0.07 µm per day
same,N.Ob/BS (Number of osteoblasts/Bone surface),OVX rats; [3],11.36 ± 0.71 N per mm
same,N.Oc/BS (Number of osteoclasts/Bone surface),OVX rats; [3],2.55 ± 0.22 N per mm
same,OV/TV (Osteoid volume/Tissue volume),OVX rats; [3],0.465 ± 0.040%
same,ObS/BS (Osteoblast surface/Bone surface),OVX rats; [3],14.98 ± 1.07%
same,OcS/BS (Osteoclast surface/Bone surface),OVX rats; [3],8.49 ± 0.79%
same,Tb. N (Trabecular number),OVX rats; [3],3.07 ± 0.18 N per mm
same,Tb. Sp (Trabecular separation),OVX rats; [3],264 ± 24 µm
same,Tb. Th (Trabecular thickness),OVX rats; [3],75.1 ± 4.1 µm
same,BFR/BS (Bone formation rate/Bone surface),OVX rats; [4],0.275 ± 0.022 mm3 per mm2 per year
same,BRs.R,OVX rats; [4],0.071 ± 0.008 mm2 per mm2 per year
same,BV/TV (Bone volume/Tissue volume),OVX rats; [4],20.1 ± 1.1%
same,ES/BS (Eroded surface/Bone surface),OVX rats; [4],33.0 ± 1.6%
same,MAR (Mineral apposition rate),OVX rats; [4],2.22 ± 0.06 µm per day
same,N.Ob/BS (Number of osteoblasts/Bone surface),OVX rats; [4],16.09 ± 1.72 N per mm
same,N.Oc/BS (Number of osteoclasts/Bone surface),OVX rats; [4],3.60 ± 0.20 N per mm
same,OV/TV (Osteoid volume/Tissue volume),OVX rats; [4],0.690 ± 0.076%
same,ObS/BS (Osteoblast surface/Bone surface),OVX rats; [4],24.64 ± 2.70%
same,OcS/BS (Osteoclast surface/Bone surface),OVX rats; [4],11.69 ± 0.70%
same,Tb. N (Trabecular number),OVX rats; [4],2.54 ± 0.11 N per mm
same,Tb. Sp (Trabecular separation),OVX rats; [4],322 ± 18 µm
same,Tb. Th (Trabecular thickness),OVX rats; [4],79.2 ± 2.7 µm
same,BFR/BS (Bone formation rate/Bone surface),OVX rats; [5],0.285 ± 0.023 mm3 per mm2 per year
same,BRs.R,OVX rats; [5],0.057 ± 0.006 mm2 per mm2 per year
same,BV/TV (Bone volume/Tissue volume),OVX rats; [5],20.1 ± 1.4%
same,ES/BS (Eroded surface/Bone surface),OVX rats; [5],39.7 ± 1.6%
same,MAR (Mineral apposition rate),OVX rats; [5],2.28 ± 0.08 µm per day
same,N.Ob/BS (Number of osteoblasts/Bone surface),OVX rats; [5],17.55 ± 1.43 N per mm
same,N.Oc/BS (Number of osteoclasts/Bone surface),OVX rats; [5],4.30 ± 0.27 N per mm
same,OV/TV (Osteoid volume/Tissue volume),OVX rats; [5],0.794 ± 0.085%
same,ObS/BS (Osteoblast surface/Bone surface),OVX rats; [5],25.14 ± 2.09%
same,OcS/BS (Osteoclast surface/Bone surface),OVX rats; [5],13.60 ± 0.69%
same,Tb. N (Trabecular number),OVX rats; [5],2.64 ± 0.14 N per mm
same,Tb. Sp (Trabecular separation),OVX rats; [5],315 ± 24 µm
same,Tb. Th (Trabecular thickness),OVX rats; [5],76.0 ± 3.1 µm
same,serum Ca,normal dogs [1],significantly increased
same,serious side effects,normal dogs [2]; one-month toxicology studies in normal dogs,not any serious side effects
same,serious side effects,normal dogs [2]; preclinical toxicology studies,no serious side effects
